The values that follow come from paper PMC10111423, “Antimalarial Imidazopyridines Incorporating an Intramolecular Hydrogen Bonding Motif: Medicinal Chemistry and Mechanistic Studies” (ACS Infectious Diseases, 2023).

Data set [1] is described as follows: In vitro cytotoxicity MTT assay. It is filed as cell-based, Chinese hamster. To be noted: Chinese hamster, Chinese hamster ovarian (CHO) cells; MTT assay. The procedure: (§1) In vitro cytotoxicity was performed on the Chinese Hamster Ovarian cell line by measuring cellular growth and survival calorimetrically through the MTT assay.[29],[30] The formation of tetrazolium salt was used as a measure of chemosensitivity and growth. (Details of this assay is described in the Supporting Information.) page 19: et al, 1993). The test samples were prepared to a 10 mmol/L stock solution in 100% DMSO. Samples were tested as a suspension if not completely dissolved. Further dilutions to the desired starting concentration were freshly prepared in growth media on each occasion of the experiment. The standard antimalarial drugs chloroquine (CQ) and artesunate (Arts) were used as the reference drug in all experiments. A full dose-response was performed for all compounds […] value). Test samples were tested at a starting concentration of 6mmol/L, which was then serially diluted 2-fold in growth medium to generate the tested concentration range. The same dilution technique was used for all samples. CQ and Arts were tested from a starting concentration of 1μg/mL. The highest concentration of solvent to which the parasites were exposed was <0.1% and has no measurable effect on the parasite viability (data not shown). The assay plate was incubated at 37 °C for 72h in a sealed gas chamber under 3% O2 and 4% CO2 with the balance being N2. After 72h, the wells in the assay plate were gently resuspended, and 15μL from each well was transferred to a duplicate plate containing 100μL of Malstat reagent and 25μL of nitroblue tetrazolium solution in each well. Plates were left to develop for 20 minutes in the dark and then absorbance of each well was quantified using a spectrophotometer at 620nm wavelength. The remaining population of parasites at each concentration of the test compound was determined by comparing the absorbance of each well to the absorbance of a well containing the drug-free control. Survival was plotted against concentration and the IC50 values were obtained using a non-linear dose-response curve fitting analysis via the Dotmatics software platform.2 In vitro Cytotoxicity Assay In vitro cytotoxicity was performed on the Chinese Hamster Ovarian cell line by measuring […] diphenyltetrazolium bromide (MTT) assay.3,4 The formation of tetrazolium salt was used as a measure of chemosensitivity and growth. 2 mg/mL stock solutions of the test compounds were prepared in DMSO and stored at -20 °C until required. The stock solution was subsequently diluted with the assay medium to make up an initial concentration of 100 μg/mL. The initial 100 μg/mL solution is serially diluted 10- S19 page 20: fold to attain six assay concentrations of 100-0.001 μg/mL. […] was used as the reference compound in this assay. The highest concentration of DMSO, which was used as the negative control, had no measurable effect on cell viability. After 44 hours of exposure of the cells to the test compounds, a solution of MTT was added. This was followed by an additional 4 hours of incubation at 37 °C. The assay plates were centrifuged, medium removed, and DMSO was added to the crystals. The amount of formazan was ascertained by measuring the absorbance at 540 nm. GraphPad Prism software was then used to generate IC50 values through a non-linear dose-response curve analysis. β-Hematin Inhibition Assay 20 mM stock solutions of controls and test compounds were made in DMSO. A solution […] was added to every well in columns 1-11 of a 96-well plate. 140 μL of water and 40 μL of 305.5 μM NP-40 were added to column 12 to mediate the formation of beta-hematin. 20 μL of test compounds (20 mM) were added to column 12 and 100 μL of this solution serially diluted to column 2, leaving column 1 blank (0 μM of test compound). 178.8 μL aliquot of hematin stock was suspended in 20 ml of a 1 M acetate buffer at pH 4.9. 100 μL of this hematin suspension was then added into each well, and the plates were incubated for ±5 hrs at 37°C. […]
On the technique in general: Tetrazolium assays rely on reduction of a dye to a coloured formazan, in cell work by metabolically active cells.

Data set [2] concerns Chinese hamster ovarian (CHO) cell line. The experiment in a line: In vitro cytotoxicity MTT assay. It is filed as cell-based. To be noted: CHO vs PfNF54. On the procedure: as §1

A value given as a limit tells only on which side of the number the result lay.

Usually IC50 stands for the midpoint of a concentration-inhibition curve. Lower therefore signals greater potency.

Consider `CCN(CCNc1cc2[nH]c(C3CCCC3)nc2cn1)Cc1ccc(Cl)cc1O` [Compound 1, 5-Chloro-2-(((2-((2-cyclopentyl-1H-imidazo[4,5-c]pyridin-6-yl)amino)ethyl)(ethyl)amino)methyl)phenol], for which the IC50 at 44 h in data set [1] was determined as 27.1 µM. The “SI (selectivity index) = IC50 CHO/IC50 PfNF54” value in data set [2] turned out to be 79.76.
On the same counts, the results for `CCN(CCNc1cc2[nH]c(C3CC3)nc2cn1)Cc1ccc(Cl)cc1O` [Compound 5, 5-Chloro-2-(((2-((2-cyclopropyl-1H-imidazo[4,5-c]pyridin-6-yl)amino)ethyl)(ethyl)amino)methyl)phenol] are 46.4 µM and 119.08.
On the same counts, the results for `CCN(CCNc1cc2[nH]c(C3(C)CC3)nc2cn1)Cc1ccc(Cl)cc1O` [Compound 6, 5-Chloro-2-((ethyl(2-((2-(1-methylcyclopropyl)-1H-imidazo[4,5-c]pyridin-6-yl)amino)ethyl)amino)methyl)phenol] are over 50 µM and over 102.04.
Turning to `CCN(CCNc1cc2[nH]c(-c3cccc(C(F)(F)F)c3)nc2cn1)Cc1ccc(Cl)cc1O` [Compound 14, 5-Chloro-2-((ethyl(2-((2-(3-(trifluoromethyl)phenyl)-1H-imidazo[4,5-c]pyridin-6-yl)amino)ethyl)amino)methyl)phenol], in data set [1], the IC50 at 44 h is 37.3 µM. The “SI (selectivity index) = IC50 CHO/IC50 PfNF54” value in data set [2] is reported as 466.25.
On the same counts, the results for `CCN(CCNc1cc2[nH]c(-c3ccc(C(F)(F)F)nc3)nc2cn1)Cc1ccc(Cl)cc1O` [Compound 19, 5-Chloro-2-((ethyl(2-((2-(6-(trifluoromethyl)pyridin-3-yl)-1H-imidazo[4,5-c]pyridin-6-yl)amino)ethyl)amino)methyl)phenol] are over 50 µM and over 131.58.
